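The compound was tested at five concentrations on cells cultured in 96-well plates, with a 48-hour exposure period. GI50: concentration for 50% inhibition of growth.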 Activity calls are given as the source filed them. Cut-off read from the data, not from the text of the source: active = GI50 up to about 1.1 µM and inactive = higher.
How the values were obtained:
Experiment in all cases: NCI tumour cell line growth inhibition, 48 h
A549 = system: A549
CAKI-1 = system: CAKI-1
HCT-15 = system: HCT-15
HT-29 = system: HT-29
K562 = system: K562
KM12 = system: KM12
M14 = system: M14
MOLT-4 = system: MOLT-4
NCI-H226 = system: NCI-H226
OVCAR-4 = system: OVCAR-4
RPMI-8226 = system: RPMI-8226
SF-295 = system: SF-295
SK-OV-3 = system: SK-OV-3
U-251 = system: U-251
UACC-257 = system: UACC-257
UACC-62 = system: UACC-62
UO-31 = system: UO-31
RXF 393 = system: RXF 393
SF-539 = system: SF-539

SMILES	GI50 (A549)	GI50 (CAKI-1)	GI50 (HCT-15)	GI50 (HT-29)	GI50 (K562)	GI50 (KM12)	GI50 (M14)	GI50 (MOLT-4)	GI50 (NCI-H226)	GI50 (OVCAR-4)	GI50 (RPMI-8226)	GI50 (SF-295)	GI50 (SK-OV-3)	GI50 (U-251)	GI50 (UACC-257)	GI50 (UACC-62)	GI50 (UO-31)	GI50 (RXF 393)	GI50 (SF-539)
C1=CC=C2NCCSCC/N=C3/C=CC=CC=C3NCCSCC/N=C\2C=C1	> 100 µM (inactive)	> 100 µM (inactive)	> 100 µM	> 100 µM (inactive)	> 100 µM (inactive)	> 100 µM (inactive)	> 100 µM (inactive)	> 100 µM (inactive)	> 100 µM (inactive)	> 100 µM (inactive)	> 100 µM (inactive)	> 100 µM (inactive)	> 100 µM (inactive)	> 100 µM (inactive)	> 100 µM (inactive)	> 100 µM (inactive)	> 100 µM (inactive)		
CC(=O)OCC1OC(O[C@@H]2C[C@H]3C(C)(C)[C@@H](OC(C)=O)CC[C@]3(C)[C@H]3CC[C@]45C[C@]4(CC[C@H]5[C@@H](C)C[C@@H](O)[C@H](O)C(C)(C)F)[C@@]32C)C(O)C(O)C1O (stereo partly specified)	1.62 µM (inactive)	63.4 µM (inactive)	2.48 µM	1.64 µM (inactive)	1.6 µM (inactive)	16.2 µM (inactive)	1.76 µM (inactive)	1.92 µM (inactive)		65.9 µM (inactive)	1.79 µM (inactive)	24.7 µM (inactive)	42.2 µM (inactive)	18.2 µM (inactive)	7.57 µM (inactive)	23.9 µM (inactive)		57.5 µM (inactive)	1.81 µM (inactive)
Cc1cccc(C)c1NC(=O)/C(Cc1nc2ccc([N+](=O)[O-])cc2nc1O)=N\NC(N)=O	> 100 µM (inactive)	> 100 µM (inactive)	> 100 µM	> 100 µM (inactive)	39.7 µM (inactive)	57.5 µM (inactive)	> 100 µM (inactive)	31.6 µM (inactive)	> 100 µM (inactive)	90.6 µM (inactive)	37.9 µM (inactive)	> 100 µM (inactive)	> 100 µM (inactive)	> 100 µM (inactive)	> 100 µM (inactive)	80.9 µM (inactive)	45.3 µM (inactive)		> 100 µM (inactive)
C=C1C(=O)O[C@H]2C1[C@H](OC(=O)/C(C)=C\COC(C)=O)C[C@]1(CO1)[C@@H]1[C@H](O)[C@H]3O[C@@]3(C)[C@@H]12 (stereo partly specified)	49.2 µM (inactive)	14.3 µM (inactive)	18.5 µM	19.1 µM (inactive)	15.2 µM (inactive)	14.8 µM (inactive)		19.5 µM (inactive)	26.8 µM (inactive)	27 µM (inactive)	13.3 µM (inactive)	> 61 µM (inactive)	> 67 µM (inactive)	21.7 µM (inactive)	16.8 µM (inactive)	15.8 µM (inactive)	> 88.7 µM (inactive)	16.8 µM (inactive)	27 µM (inactive)
N#CC1=C(N)OC(c2cccc([N+](=O)[O-])c2)C1(C#N)C#N (stereo unspecified)	34.8 µM (inactive)	2.98 µM (inactive)	18.7 µM	19.1 µM (inactive)	26.2 µM (inactive)	> 10 µM (inactive)	25.8 µM (inactive)		30.8 µM (inactive)		18.3 µM (inactive)	26.5 µM (inactive)	70.3 µM (inactive)	39.9 µM (inactive)	17 µM (inactive)	26.6 µM (inactive)	17.9 µM (inactive)	20 µM (inactive)	21.8 µM (inactive)
CN(C)CC1(C)CC/C(=C\c2ccc(Cl)cc2)C1=O (stereo unspecified)	66.8 µM (inactive)	22.7 µM (inactive)	34.4 µM	44.2 µM (inactive)	40.6 µM (inactive)	31.8 µM (inactive)	43.2 µM (inactive)	20.5 µM (inactive)	> 100 µM (inactive)	35.2 µM (inactive)	19.1 µM (inactive)	67.1 µM (inactive)		40.1 µM (inactive)	44.7 µM (inactive)	28.5 µM (inactive)	45.8 µM (inactive)	22.4 µM (inactive)	46.5 µM (inactive)
C=C1C(=O)OC2/C=C(\C)CC(O)/C=C(/CO)CC(OC(=O)/C(C)=C/C)C12 (stereo unspecified)	155 µM (inactive)	34.8 µM (inactive)	38.4 µM	54.6 µM (inactive)	18 µM (inactive)	45 µM (inactive)		18.2 µM (inactive)	30 µM (inactive)	117 µM (inactive)	7.1 µM (inactive)	163 µM (inactive)	158 µM (inactive)	86.1 µM (inactive)	45.6 µM (inactive)	37.8 µM (inactive)	173 µM (inactive)	14.4 µM (inactive)	29 µM (inactive)
COc1ccc(-c2c(C#N)c(-c3ccc(C)cc3)n(NS(=O)(=O)c3ccc(C)cc3)c(=O)c2C#N)cc1	41 µM (inactive)	63.7 µM (inactive)	60.3 µM	44.1 µM (inactive)	57 µM (inactive)	24.8 µM (inactive)	55.2 µM (inactive)	19.8 µM (inactive)	> 100 µM (inactive)	31.3 µM (inactive)	17.3 µM (inactive)	37.8 µM (inactive)	70.5 µM (inactive)	53.6 µM (inactive)	> 100 µM (inactive)	43.6 µM (inactive)		38.8 µM (inactive)	32.4 µM (inactive)
